Activity calls are given as the source filed them.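 The calls were made as follows: active = cell killing, with AC50 under 10 µM and within twice the top valid dose; inactive = effect in the opposite direction, and the rest.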
How the values were obtained:
[1] = viability loss in A549 lung cells – cell-based, ATP luminescence, dry powder, set 16, cytotoxicity control, dose response (AID 1053140); settings: A549 viability, CellTiter-Glo ATP luminescence, 72 h
[2] = system: A549 viability, CellTiter-Glo ATP luminescence, 72 h; assay: as above

Row | Compound | AC50 [2] | further results
1 | CO[C@H]1CN(C)C(=O)c2cc(NC(=O)NC(C)C)ccc2OC[C@H](C)N(Cc2cncnc2)C[C@@H]1C |  | activity change, negative = cytotoxic ([1]; at 50 µM (top of the series)): -6.71% (inactive)
2 | CO[C@H]1CN(C)C(=O)c2cc(NC(=O)NC(C)C)ccc2OC[C@H](C)N(Cc2ccncc2)C[C@@H]1C |  | activity change, negative = cytotoxic ([1]; at 50 µM (top of the series)): 4.36% (inactive)
3 | CO[C@H]1CN(C)C(=O)c2cc(NC(=O)NC(C)C)ccc2OC[C@H](C)N(C(=O)c2ccccc2)C[C@@H]1C |  | activity change, negative = cytotoxic ([1]; at 50 µM (top of the series)): -11.4% (inactive)
4 | CCCNC(=O)Nc1ccc2c(c1)OC[C@H](C)N(Cc1ccc(-c3ccccn3)cc1)C[C@H](C)[C@@H](OC)CN(C)C2=O |  | activity change, negative = cytotoxic ([1]; at 26 µM (top of the series)): -9.23% (inactive)
5 | CCC(CC)Nc1c(Nc2ccc3c(c2)C(=O)N(C)C[C@H](OC)[C@@H](C)CN(Cc2ccc(-c4ccccn4)cc2)[C@@H](C)CO3)c(=O)c1=O | 43.7 µM | 
6 | CCCC(=O)Nc1ccc2c(c1)OC[C@H](C)N(Cc1ccccc1)C[C@H](C)[C@@H](OC)CN(C)C2=O |  | activity change, negative = cytotoxic ([1]; at 26 µM (top of the series)): -0.093% (inactive)
7 | CO[C@H]1CN(C)C(=O)c2ccc(NC(=O)NC(C)C)cc2OC[C@H](C)N(Cc2ccccc2)C[C@@H]1C |  | activity change, negative = cytotoxic ([1]; at 26 µM (top of the series)): 4.59% (inactive)
8 | CO[C@H]1CN(C)C(=O)c2cc(Nc3c(NC4CC4)c(=O)c3=O)ccc2OC[C@H](C)N(Cc2ccc(-c3ccccn3)cc2)C[C@@H]1C | 25.2 µM | 
9 | CO[C@H]1CN(C)C(=O)c2cc(Nc3c(NC(C)C)c(=O)c3=O)ccc2OC[C@H](C)N(Cc2ccc(-c3ccccn3)cc2)C[C@@H]1C | 45.3 µM | 
10 | CO[C@H]1CN(C)C(=O)c2cc(Nc3ncccn3)ccc2OC[C@H](C)N(Cc2ccc(-c3ccccn3)cc2)C[C@@H]1C | > 100 µM (inactive) | 
11 | CO[C@H]1CN(C)C(=O)c2cc(NC(=O)OC(C)C)ccc2OC[C@H](C)N(Cc2ccc(-c3ccccn3)cc2)C[C@@H]1C | > 100 µM (inactive) | 
12 | CO[C@H]1CN(C)C(=O)c2cc(Nc3c(NC4CCCC4)c(=O)c3=O)ccc2OC[C@H](C)N(Cc2ccc(-c3ccccn3)cc2)C[C@@H]1C | > 100 µM (inactive) | 
13 | CCCNC(=O)Nc1ccc2c(c1)OC[C@H](C)N(Cc1ccccc1)C[C@H](C)[C@@H](OC)CN(C)C2=O |  | activity change, negative = cytotoxic ([1]; at 26 µM (top of the series)): 0.334% (inactive)
14 | CO[C@H]1CN(C)C(=O)c2cc(Nc3c(NC4CCCCC4)c(=O)c3=O)ccc2OC[C@H](C)N(Cc2ccc(-c3ccccn3)cc2)C[C@@H]1C | 36.8 µM | 
15 | CO[C@H]1CN(C)C(=O)c2cc(NC(=O)NC(C)C)ccc2OC[C@H](C)N(Cc2ccc(-c3cncnc3)cc2)C[C@@H]1C | > 100 µM (inactive) | 
16 | CO[C@H]1CN(C)C(=O)c2cc(NC(=O)NC(C)C)ccc2OC[C@H](C)N(C(=O)Nc2ccc(-c3ccccn3)cc2)C[C@@H]1C | > 100 µM (inactive) | 
17 | CO[C@H]1CN(C)C(=O)c2cc(NC(=O)NC(C)C)ccc2OC[C@H](C)NC[C@@H]1C |  | activity change, negative = cytotoxic ([1]; at 50 µM (top of the series)): -2.18% (inactive)
18 | CCCC(=O)Nc1ccc2c(c1)OC[C@H](C)N(Cc1ccc(-c3ccccn3)cc1)C[C@H](C)[C@@H](OC)CN(C)C2=O |  | activity change, negative = cytotoxic ([1]; at 26 µM (top of the series)): 6.08% (inactive)
19 | CO[C@H]1CN(C)C(=O)c2cc(NC(=O)NC(C)C)ccc2OC[C@H](C)N(C(=O)c2ccc(-c3ccccn3)cc2)C[C@@H]1C |  | activity change, negative = cytotoxic ([1]; at 50 µM (top of the series)): -11.3% (inactive)
20 | CO[C@H]1CN(C)C(=O)c2cc(NC(=O)NC(C)C)ccc2OC[C@H](C)N(Cc2cccnc2)C[C@@H]1C |  | activity change, negative = cytotoxic ([1]; at 50 µM (top of the series)): 6.13% (inactive)
21 | CO[C@H]1CN(C)C(=O)c2cc(N)ccc2OC[C@H](C)N(Cc2ccc(-c3ccccn3)cc2)C[C@@H]1C | > 100 µM (inactive) | 
22 | CO[C@H]1CN(C)C(=O)c2cc(NC(=O)NC(C)C)ccc2OC[C@H](C)N(Cc2ccccn2)C[C@@H]1C | > 100 µM (inactive) | 
23 | CO[C@H]1CN(C)C(=O)c2ccc(NC(=O)NC(C)C)cc2OC[C@H](C)N(Cc2ccc(-c3ccccn3)cc2)C[C@@H]1C |  | activity change, negative = cytotoxic ([1]; at 26 µM (top of the series)): 3.22% (inactive)
24 | CO[C@H]1CN(C)C(=O)c2cc(NC(=O)NC(C)C)ccc2OC[C@H](C)N(Cc2ccc(-c3cccnc3)cc2)C[C@@H]1C | 45.7 µM | 
25 | CO[C@H]1CN(C)C(=O)c2cc(NC(=O)C(C)C)ccc2OC[C@H](C)N(Cc2ccc(-c3ccccn3)cc2)C[C@@H]1C | > 100 µM (inactive) | 
26 | CO[C@H]1CN(C)C(=O)c2cc(NC(=O)NC(C)C)ccc2OC[C@H](C)N(Cc2ccc(F)cc2)C[C@@H]1C |  | activity change, negative = cytotoxic ([1]; at 50 µM (top of the series)): -3.88% (inactive)

— PubChem BioAssay AID1053140 (Broad Institute, 2014)
